Reference: patent publication US9932346B2, “Pyrrolopyrimidines for use in influenza virus infection” (Janssen Sciences Ireland UC, priority 2014, dated 2018)

Experiments:
[1] = in vitro; settings: dog
[2] = test system: influenza virus A/Taiwan/1/86 (H1N1); experiment: organism not typed; type: cell-based; settings: MDCK cells infected with influenza A/Taiwan/1/86 (H1N1), three days post-virus exposure, CPE by ATP levels
[3] = test system: MDCK cells; settings: dog, 3 days

Row | SMILES | CC50 at 3 days [1] [nM] | IC50 ([2]; MDCK, 72 h) [nM] | CC50 [3] [nM] | IC50 [2] [nM]
1 | O=C(N[C@H]1CCC[C@@H](Nc2nc(-c3c[nH]c4ncncc34)ncc2F)C1)c1ccn2nccc2n1 (racemic) [Compound 29] | > 25000 | 10 | – | –
2 | Cc1ncc2c(-c3ncc(F)c(N[C@@H]4CCC[C@H](NC(=O)N5CCCC5)C4)n3)c[nH]c2n1 [Compound 92] | > 25000 | 180 | – | –
3 | O=C(O)c1ccccc1C(=O)N[C@H]1CCC[C@@H](Nc2nc(-c3c[nH]c4ncncc34)ncc2F)C1 (racemic) [Compound 63] | > 25000 | 720 | – | –
4 | O=C(O)[C@H]1C2CCC(CC2)[C@@H]1Nc1nc(-c2c[nH]c3ncncc23)ncc1F (mixture of isomers) [Compound 54] | > 25000 | 460 | – | –
5 | Cc1noc(C)c1C(=O)N[C@H]1CCC[C@@H](Nc2nc(-c3c[nH]c4ncncc34)ncc2F)C1 (racemic) [Compound 40] | > 25000 | 190 | – | –
6 | CC(C)(C)C(CC(=O)O)Nc1nc(-c2c[nH]c3ncncc23)c(C#N)cc1F (stereo not drawn) [Compound 21] | 13400 | 106 | – | –
7 | CCC(=O)N[C@H]1CCC[C@@H](Nc2nc(-c3c[nH]c4ncncc34)ncc2F)C1 (racemic) [Compound 62] | > 25000 | 700 | – | –
8 | Fc1cnc(-c2c[nH]c3ncncc23)nc1NC1CCCCC1 [Compound 65] | 11600 | 810 | – | –
9 | O=C(N[C@H]1CCC[C@@H](Nc2nc(-c3c[nH]c4ncncc34)cnc2F)C1)N1CCCC1 [Compound 46] | > 25000 | 5 | – | –
10 | Cc1cc(C(=O)N[C@@H]2CCC[C@@H](Nc3nc(-c4c[nH]c5ncncc45)ncc3F)C2)no1 (racemic) [Compound 34] | > 25000 | 40 | – | –
11 | Fc1cnc(-c2c[nH]c3ncncc23)nc1NC1[C@H]2CC3C[C@H](C2)C[C@H]1C3 (stereo partly drawn) [Compound 57] | 5200 | 660 | – | –
12 | O=C(N[C@H]1CCC[C@@H](Nc2nc(-c3c[nH]c4ncncc34)c(F)cc2F)C1)N1CCCC1 [Compound 23] | > 25000 | 33 | – | –
13 | Cn1cccc1C(=O)N[C@H]1CCC[C@@H](Nc2nc(-c3c[nH]c4ncncc34)ncc2F)C1 (racemic) [Compound 45] | > 25000 | 4 | – | –
14 | O=C(N[C@H]1CCC[C@@H](Nc2nc(C3CNc4ncncc43)ncc2F)C1)OCc1ccccc1 (stereo partly drawn) [Compound 28] | > 25000 | 351 | – | –
15 | O=C(N[C@H]1CCC[C@@H](Nc2nc(-c3c[nH]c4ncncc34)ncc2F)C1)C1CCC1 (racemic) [Compound 37] | > 25000 | 205 | – | –
16 | N#Cc1cc(F)c(N[C@H]2C3CCC(CC3)[C@@H]2C(=O)O)nc1-c1c[nH]c2ncncc12 [Compound 101] | 10500 | 36 | – | –
17 | CC(C)(C)[C@@H](CO)Nc1nc(-c2c[nH]c3ncncc23)ncc1F (racemic) [Compound 55] | > 25000 | 550 | – | –
18 | O=C(N[C@H]1CCC[C@@H](Nc2nc(-c3c[nH]c4ncncc34)ncc2F)C1)N1CCCC1 (racemic) [Compound 7] | > 25000 | 5 | – | –
19 | Cn1cnc(C(=O)N[C@@H]2CCC[C@@H](Nc3nc(-c4c[nH]c5ncncc45)c(C#N)cc3F)C2)c1 [Compound 12] | > 25000 | 30 | – | –
20 | O[C@H]1CCCC[C@@H]1Nc1nc(-c2c[nH]c3ncncc23)ncc1F (racemic) [Compound 58] | > 100000 | 630 | – | –
21 | Cc1nc(C(=O)N[C@H]2CCC[C@@H](Nc3nc(-c4c[nH]c5ncncc45)ncc3F)C2)c(C)o1 (racemic) [Compound 36] | > 25000 | 40 | – | –
22 | Cc1cc(C(=O)N[C@H]2CCC[C@@H](Nc3nc(-c4c[nH]c5ncncc45)ncc3F)C2)nn1C (racemic) [Compound 30] | > 25000 | 21 | – | –
23 | O=C(Nc1ccccc1)N[C@H]1CCC[C@@H](Nc2nc(-c3c[nH]c4ncncc34)ncc2F)C1 (racemic) [Compound 31] | > 25000 | 21 | – | –
24 | Nc1ncnc2[nH]cc(-c3ncc(F)c(N[C@@H]4CCC[C@H](C(=O)N5CCCC5)C4)n3)c12 [Compound 79] | > 25000 | 150 | – | –
25 | Cn1cnc(C(=O)N[C@H]2CCC[C@@H](Nc3nc(-c4c[nH]c5ncncc45)ncc3F)C2)c1 [Compound 48] | – | – | > 25000 | 35
26 | N#Cc1cc(F)c(N[C@@H]2CCC[C@H](NC(=O)c3ccccn3)C2)nc1-c1c[nH]c2ncncc12 [Compound 98] | > 25000 | 2 | – | –

Row | SMILES | CC50 at 3 days [1] [nM] | IC50 ([2]; MDCK, 72 h) [nM] | CC50 [3] [nM] | IC50 [2] [nM]
27 | Cc1[nH]c2ncncc2c1-c1ncc(F)c(N[C@@H]2CCC[C@H](NC(=O)N3CCCC3)C2)n1 [Compound 83] | > 25000 | 710 | – | –
28 | COC(=O)[C@H]1C2CCC(CC2)[C@@H]1Nc1nc(-c2c[nH]c3ncncc23)ncc1F [Compound 24] | > 25000 | 325 | – | –
29 | CC1(C(CC(=O)O)Nc2nc(-c3c[nH]c4ncncc34)ncc2F)CCCC1 (stereo not drawn) [Compound 53] | > 25000 | 650 | – | –
30 | COCC(=O)N[C@H]1CCC[C@@H](Nc2nc(-c3c[nH]c4ncncc34)ncc2F)C1 (racemic) [Compound 66] | > 25000 | 820 | – | –
31 | CC(C)(C)C(CC(=O)O)Nc1nc(-c2c[nH]c3ncncc23)c(C(F)(F)F)cc1F (stereo not drawn) [Compound 18] | 2480 | 44 | – | –
32 | CC(C)Nc1nc(-c2c[nH]c3ncncc23)ncc1F [Compound 61] | > 25000 | 630 | – | –
33 | CC(C)(C)C(=O)N[C@H]1CCC[C@@H](Nc2nc(-c3c[nH]c4ncncc34)ncc2F)C1 (racemic) [Compound 64] | > 25000 | 760 | – | –
34 | Cc1ncnc2[nH]cc(-c3ncc(F)c(N[C@@H]4CCC[C@H](NC(=O)N5CCCC5)C4)n3)c12 [Compound 87] | > 25000 | 470 | – | –
35 | CC[C@@]1(C(=O)O)CCCC[C@H]1Nc1nc(-c2c[nH]c3ncncc23)ncc1F [Compound 72] | 10300 | 860 | – | –
36 | Cn1cnc(C(=O)N[C@H]2CCC[C@@H](Nc3nc(-c4c[nH]c5ncncc45)ncc3F)C2)c1 [Compound 14] | > 25000 | 47 | – | –
37 | O=C(O)[C@H]1C2CCC(CC2)[C@@H]1Nc1nc(-c2c[nH]c3ncncc23)c(C(F)(F)F)cc1F [Compound 44] | 9400 | 3 | – | –
38 | O=C(N[C@H]1CCC[C@@H](Nc2nc(-c3c[nH]c4ncncc34)ncc2F)C1)C1CCCCO1 (mixture of isomers) [Compound 38] | > 25000 | 380 | – | –
39 | N#Cc1cc(F)c(N[C@@H]2CCC[C@H](NC(=O)N3CCCC3)C2)nc1-c1c[nH]c2ncncc12 (stereo in doubt) [Compound 9, (+/−)-N-((cis)-3-((5-cyano-3-fluoro-6-(7H-pyrrolo[2,3-d]pyrimidin-5-yl)pyridin-2-yl)amino)cyclohexyl)pyrrolidine-1-carboxamide] | 8740 | 9 | – | –
40 | Cn1cnc(C(=O)N[C@H]2CCC[C@@H](Nc3nc(-c4c[nH]c5ncncc45)c(F)cc3F)C2)c1 [Compound 16] | > 25000 | 36 | – | –
41 | Cc1cc(C(=O)N[C@H]2CCC[C@@H](Nc3nc(-c4c[nH]c5ncncc45)ncc3F)C2)on1 (racemic) [Compound 32] | > 25000 | 35 | – | –
42 | CC(C)NC(=O)N[C@H]1CCC[C@@H](Nc2nc(-c3c[nH]c4ncncc34)ncc2F)C1 (racemic) [Compound 41] | > 25000 | 319 | – | –
43 | O=C(N[C@H]1CCC[C@@H](Nc2nc(-c3c[nH]c4ncncc34)ncc2F)C1)c1ccccn1 (racemic) [Compound 35] | > 25000 | 2 | – | –
44 | CC(C)C(=O)N[C@H]1CCC[C@@H](Nc2nc(-c3c[nH]c4ncncc34)ncc2F)C1 (racemic) [Compound 73] | > 25000 | 930 | – | –
45 | O=C(N[C@H]1CCC[C@@H](Nc2nc(-c3c[nH]c4ncncc34)ncc2F)C1)c1ccno1 (racemic) [Compound 47] | > 25000 | 11 | – | –
46 | O=C(N[C@H]1CCC[C@@H](Nc2nc(-c3c[nH]c4ncncc34)ncc2F)C1)C1CC1 (racemic) [Compound 39] | > 25000 | 114 | – | –
47 | COC(=O)CC(Nc1nc(-c2c[nH]c3ncncc23)ncc1F)C(C)(C)C (stereo not drawn) [Compound 69] | > 25000 | 830 | – | –
48 | O=C(N[C@H]1CCC[C@@H](Nc2nc(-c3c[nH]c4ncncc34)ncc2F)C1)c1ccncc1 (racemic) [Compound 33] | > 100000 | 42 | – | –
49 | N#Cc1cc(F)c(N[C@H]2CCC[C@@H](NC(=O)N3CCCC3)C2)nc1-c1c[nH]c2ncncc12 (stereo in doubt) [Compound 93] | > 25000 | 6 | – | –
50 | COC(=O)N[C@H]1CCC[C@@H](Nc2nc(-c3c[nH]c4ncncc34)ncc2F)C1 (racemic) [Compound 56] | > 25000 | 600 | – | –
51 | O=C(N[C@H]1CCC[C@@H](Nc2nc(-c3c[nH]c4ncncc34)ncc2F)C1)c1cccnc1 (racemic) [Compound 49] | > 25000 | 46 | – | –
